Literature values as cited in patent US11549199B2, “Active apparel and fabric and coverings” (priority 2017, dated 2023).

System: gram-positive and gram-negative bacteria

In the case of “Poly-hexamethylene biguanide (PHMB) hydrochloride”, the “activity against gram-positive and gram-negative bacteria” value is given as “active”.
